Experimental data published in patent US8097650B2, “Method of treating a condition associated with phosphorylation of TASK-1” (The Trustees of Columbia University In The City of New York, priority 2005, dated 2012).

How the values were obtained:
atrial fibrillation = assay: Peri-operative atrial fibrillation dog model; format: in vivo
Experimental: FIG. 29. […] Peri-operative AF was induced in a dog three days after a right atriotomy by brief, rapid pacing. Routinely, this procedure results in AF that continues for at least 30 min and is only stopped by electrical cardioversion. Panel A depicts an EKG trace of the animal just prior to the induction of AF. This run of AF continued for 30 min and the animal was shocked into a normal sinus rhythm (NSR). After 15 min, a second run of AF was induced and a recording of the EKG obtained during this period of AF is shown in Panel B. 20 min later, ONO-RS-082 (0.7 mg/kg) was infused over 2 min. The heart rate slowed within 1 min of the administration of the drug and the EKG normalized within 5 min and persisted in NSR for over an hour at which point the experiment was terminated (Panel C).
Peri-operative AF was induced in a dog three days after a right atriotomy by brief, rapid pacing. Routinely, this procedure results in AF that continues for at least 30 min and is only stopped by electrical cardioversion. Panel A of FIG. 29 depicts an EKG trace of the animal just prior to the induction of AF. This run of AF continued for 30 min and the animal was shocked into a normal sinus rhythm (NSR). After 15 min, a second run of AF was induced and a recording of the EKG obtained during this period of AF is shown in Panel B. 20 min later, ONO-RS-082 (0.7 mg/kg) was infused over 2 min. Following administration of the drug, the heart rate slowed within 1 min of the administration of the drug and the EKG normalized within 5 min and persisted in NSR for over an hour at which point the experiment was terminated (FIG. 29, Panel C).

[1] = system: mouse ventricular myocytes; assay: Repolarization abnormalities in mouse ventricular myocytes paced at 1 Hz with PKCε peptides; format: cell-based
Experimental: (§1) Mouse ventricular myocytes were isolated using a retrograde coronary perfusion method previously published (Kuznetsov V et al. (1995) Circ Res 76: 40-52). All the experiments were carried out according to the guidelines issued by the IACUC of Columbia University. Adult mice 2 or 3 months old, were anaesthetized with a xylazine and ketamine mix and heparinized, the heart was quickly removed and the ascending aorta was connected to the outlet of a Langendorff column and perfused with 20-25 ml of a buffer solution (37° C.) containing (mM):NaCl, 112; KCl, 5.4; NaHCO3, 4.2; MgCl2, 1.6; HEPES, 20; glucose, 5.4; NaH2PO4, 1.7; taurine, 10; L-glutamine, 4.1; MEM amino acids solution, 2%; MEM vitamin solution, 1%; adjusted to pH 7.4, and equilibrated with 100% O2. Next, the heart was perfused with an enzyme solution containing collagenase (0.2 mg/ml; Worthington Type II) and trypsin (0.04 mg/ml) at 35° C. for 10-12 min. After this perfusion, the atria were removed and the ventricles minced and transferred to a 50 ml flask with an enzyme solution containing collagenase (0.45 mg/ml), trypsin (0.08 mg/ml), Ca^2+ (0.75 mM) and bovine serum albumin (BSA; 4.8 mg/ml). The flask was shaken vigorously for 5-10 min at 32° C. before the supernatant was removed and the cells were collected by centrifugation, this operation was repeated two or three times and additional disaggregated cells were collected. After centrifugation, the myocytes were resuspended in the buffer solution containing Ca^2+ (0.75 mM) and BSA and stored at room temperature until use. Rod-shaped, Ca^2+-tolerant myocytes, obtained with this procedure, were used within 6 h of dissociation. Measurements were performed only on quiescent myocytes with clear striations
The myocyte suspension or the coverslip with CHO cells was placed into a perfusion chamber, mounted on the stage of an inverted microscope. Unless otherwise indicated, CHO cells were superfused at room temperature with standard external Tyrode's buffer, containing (mM): NaCl, 140; KCl, 5.4; CaCl2, 1; MgCl2, 1; HEPES, 5; glucose, 10; adjusted to pH 7.4. Recordings were begun after the current reached a stable baseline (usually 3 to 4 min after initial cell rupture). In myocytes, TASK-1 current is small and exists in the presence of numerous larger K^+ currents. In order to increase the inward component of TASK-1 current and to block other potassium currents in myocytes, a modified high K^+ external solution (modified Tyrode's) was used to reduce outward rectification of TASK-1 current. The composition of this solution-was (in mM): NaCl, 100; KCl, 50; CaCl2, 1; MgCl2, 1; HEPES, 5; glucose, 10; tetraethylammonium (TEA), 1; CsCl, 5; adjusted to pH 7.4. Membrane potential and current were measured in the whole cell configuration using borosilicate glass pipettes with a tip resistance between […] and filled with a pipette solution containing (mM): aspartic acid, 130; KOH, 146; NaCl, 10; CaCl2, 2; EGTA, 5; HEPES, 10; MGATP, 2; pH 7.2. The stock solutions of C-PAF and of the PKC inhibitor, bisindolylmaleimide (BIM-I; Calbiochem), were prepared in water and diluted to the final concentrations in Tyrode's or modified Tyrode's, as appropriate. The PKC activator, PMA, was prepared in DMSO and then diluted in Tyrode's. […] Myocytes treated with the peptides were monitored continuously beginning immediately after rupture to detect the occurrence of any arrhythmias during dialysis of the peptide. Application of C-PAF to cells treated with the inhibitor peptide was started after the peptide had been permitted to dialyse into the cell (8-10 min after rupture for CHO or 10-12 min after rupture for myocytes).
The current and the voltage protocols were generated using Clampex 8.0 software applied by means of an Axopatch 200-B and a Digidata 1200 interface (Axon Instruments). In current clamp mode, for recording action potentials, the signals were filtered at 1 KHz (low pass Bessel filter) and acquired at a sampling rate of 5 KHz. […]

TASK-1 = assay: C-PAF-sensitive TASK-1 current in mouse ventricular myocytes dialyzed with PKCε peptides; format: cell-based; details: modified Tyrode's (high K+), scrambled peptide in pipette
Experimental: as §1
The myocyte suspension or the coverslip with CHO cells was placed into a perfusion chamber, mounted on the stage of an inverted microscope. Unless otherwise indicated, CHO cells were superfused at room temperature with standard external Tyrode's buffer, containing (mM): NaCl, 140; KCl, 5.4; CaCl2, 1; MgCl2, 1; HEPES, 5; glucose, 10; adjusted to pH 7.4. Recordings were begun after the current reached a stable baseline (usually 3 to 4 min after initial cell rupture). In myocytes, TASK-1 current is small and exists in the presence of numerous larger K^+ currents. […] Membrane potential and current were measured in the whole cell configuration using borosilicate glass pipettes with a tip resistance between […] and filled with a pipette solution containing (mM): aspartic acid, 130; KOH, 146; NaCl, 10; CaCl2, 2; EGTA, 5; HEPES, 10; MGATP, 2; pH 7.2. […] Myocytes treated with the peptides were monitored continuously beginning immediately after rupture to detect the occurrence of any arrhythmias during dialysis of the peptide. […]

Compound	effect on atrial fibrillation (atrial fibrillation; 0.7 mg/kg)	persistence in normal sinus rhythm (atrial fibrillation; 0.7 mg/kg infused over 2 min)	time to normalization of EKG (atrial fibrillation; 0.7 mg/kg infused over 2 min)	time to slowing of heart rate after administration (atrial fibrillation; 0.7 mg/kg infused over 2 min)	cells with repolarization abnormalities ([1]; C-PAF 2 min, no peptide in pipette)	repolarization abnormalities ([1]; C-PAF, PKCε-specific inhibitor peptide 100 nM in pipette)	cells with abnormalities during repolarization ([1]; C-PAF, scrambled peptide 100 nM in pipette)	reversal potential of C-PAF-sensitive current (TASK-1)
CCCCCc1ccc(C=CC(=O)Nc2cc(Cl)ccc2C(=O)O)cc1 [ONO-RS-082]	halts atrial fibrillation	over an hour	≤ 5 min	≤ 1 min	–	–	–	–
CCCCCCCCCCCCCCCCOC[C@H](COP(=O)([O-])OCC[N+](C)(C)C)OC(=O)NC [C-PAF, carbamyl-platelet-activating factor]	–	–	–	–	5 of 7	failed to induce repolarization abnormalities in any of the 8 cells	14 of 19	−26.1±1.9 mV
